The record followed here is patent US11745181B2, “Devices and methods for bioassay” (Unchained Labs, priority 2017, dated 2023).

Data set [1] has as its system zebrafish embryos Tg(fli1:EGFP). As to the kind of experiment: Heart rate measurement of zebrafish embryos/larvae in the μZMount fluidic device. The format is in vivo. The note with it: 0.1 μM, 1 μM, or 5 μM for 48 or 96 hours; compared with published literature. The procedure:
Each different drug treatment was replenished every 24 hours, effectively dosing the zebrafish at 24, 48, 72, and 96 hours post initial drug treatment. The drug was added in a manner similar to replenishing the media. At 4 dpf, each larvae was moved into its respective second bioassay region by adding 10 μl of media to the sample chamber and aspirated out quickly from the first outlet. The yolk of the zebrafish at this age has depleted enough to allow the fish to flow into the second bioassay region.
Heart rate was measured for no less than five embryos per treatment at 48 hours post fertilization (hpf) and 96 hpf. Of the heart rates measured, three of them were recorded using video image capturing techniques for future evaluation. The heart rates were measured by visually inspecting the heart beat and counting the number of beats in 15 seconds and then multiplying by 4.

Data set [2] deals with zebrafish larvae Tg(fli1:EGFP). As to the kind of experiment: High-resolution fluorescence-microscopy imaging of vessel sprouting and morphology in zebrafish larvae. The format is in vivo. The following applies: 0.1 μM, 1 μM, or 5 μM, replenished every 24 hours. An excerpt:
In this example, green fluorescent zebrafish embryos were loaded into the fluidic chambers of μZMount, a non-limiting exemplary fluidic device with the structure provided in FIGS. 1-2 herein and dimensions that were within 5% of the target dimensions as provided herein with reference to the illustrative embodiment provided in FIGS. 1-2, and that includes a plurality of fluidic chambers having the features and within 5% of the target dimensions provided herein for the illustrative embodiment of FIGS. 2A-2B. […] These zebrafish were Tg(fli1:EGFP) and expressed enhanced GFP under the control of the fli1 promoter such that the entire vasculature fluoresces. The zebrafish embryos and larvae that developed therefrom, were visualized with high-resolution fluorescent microscopy.
Each different drug treatment was replenished every 24 hours, effectively dosing the zebrafish at 24, 48, 72, and 96 hours post initial drug treatment. The drug was added in a manner similar to replenishing the media. […]
Embryos were imaged at various time points while within the fluidic device, up to 5 dpf, using high-resolution fluorescence-microscopy. […]
Drug-mediated inhibition of intersegmental and subintestinal vessels sprouting was recorded using high-resolution fluorescence-microscopy.

For the compound `Cc1cc(C)c(/C=C2\C(=O)Nc3ccccc32)[nH]1` [SU-5416], the heart rates entry in data set [1] was “within the normal range”. Besides, in data set [2], the dorsalization entry was “concentration dependent dorsalization”. Further, the “inhibition of intersegmental and subintestinal vessels sprouting (angiogenic development)” value in data set [2] (fluorescence microscopy) is on record as “suppression of angiogenic development similar to published work”.
